The structures appear in SMILES notation.

16 compounds from US12649750B2, “Macrocyclic compounds, compositions, and methods of using thereof” (Sionna Therapeutics Inc., priority 2022, dated 2026) can be followed below.

Test [1] has as its target T1, CFTR (Homo sapiens, UniProt P13569, DEL508-508).
T1 construct: Primary human bronchial epithelial cells from a ΔF508 homozygous CF donor; host or cells: primary human bronchial epithelial cells (CF-HBE), ΔF508 homozygous donor
Nature of the test: TECC24 AUC fold over DMSO @10 μM, CFTR-mediated transepithelial chloride transport in CF-HBE cells. The format is cell-based. The note with it: test agent AUC divided by DMSO vehicle AUC, primary CF-HBE cells, ΔF508 homozygous donor, 48 hours incubation. The essentials:
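ΔF508-homozygous primary bronchial epithelial cells incubated 48 h at 36.5° C with compound (10 μM) in IL-13-containing medium, then TECC24 current-clamp recording in pH 7.4 Hepes saline with benzamil 10 μM, forskolin 10 μM, then CFTR inhibitor-172 20 μM. Equivalent Cl− current AUC between forskolin and inhibitor, expressed as fold over DMSO.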

The target of test [2] is T2, NBD1 (Homo sapiens, UniProt P13569).
T2 construct: Purified recombinant NBD1 was produced using previously described methods; made in house
T2 sequence (P13569 423-646 limits assumed): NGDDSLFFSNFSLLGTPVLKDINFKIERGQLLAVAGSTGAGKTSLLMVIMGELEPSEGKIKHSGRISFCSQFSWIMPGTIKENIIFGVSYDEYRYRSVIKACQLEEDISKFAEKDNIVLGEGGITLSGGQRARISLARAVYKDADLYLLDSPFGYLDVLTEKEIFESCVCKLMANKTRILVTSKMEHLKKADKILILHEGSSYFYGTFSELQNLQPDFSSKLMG
The test can be described thus: Aggregation analysis using differential static light scattering (DSLS), thermal stability of NBD1 (ΔTagg). Type of test: binding. The note with it: ΔTagg versus DMSO control, NBD1 0.2 mg/ml. Put shortly:
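NBD1 0.2 mg/ml, S200 buffer (50 mM Tris-HCl, 150 mM NaCl, 5 mM MgCl2, 2 mM ATP, 2 mM DTT, pH7.6) + 1% glycerol; cpd in DMSO; oil overlay. Ramp 25→70° C. at 1° C./min, DSLS images every 0.5° C. ΔTagg = Tagg (inflection) − mean DMSO Tagg.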

T1 sequence (P13569 with tags, fused parts or gaps DEL508-508): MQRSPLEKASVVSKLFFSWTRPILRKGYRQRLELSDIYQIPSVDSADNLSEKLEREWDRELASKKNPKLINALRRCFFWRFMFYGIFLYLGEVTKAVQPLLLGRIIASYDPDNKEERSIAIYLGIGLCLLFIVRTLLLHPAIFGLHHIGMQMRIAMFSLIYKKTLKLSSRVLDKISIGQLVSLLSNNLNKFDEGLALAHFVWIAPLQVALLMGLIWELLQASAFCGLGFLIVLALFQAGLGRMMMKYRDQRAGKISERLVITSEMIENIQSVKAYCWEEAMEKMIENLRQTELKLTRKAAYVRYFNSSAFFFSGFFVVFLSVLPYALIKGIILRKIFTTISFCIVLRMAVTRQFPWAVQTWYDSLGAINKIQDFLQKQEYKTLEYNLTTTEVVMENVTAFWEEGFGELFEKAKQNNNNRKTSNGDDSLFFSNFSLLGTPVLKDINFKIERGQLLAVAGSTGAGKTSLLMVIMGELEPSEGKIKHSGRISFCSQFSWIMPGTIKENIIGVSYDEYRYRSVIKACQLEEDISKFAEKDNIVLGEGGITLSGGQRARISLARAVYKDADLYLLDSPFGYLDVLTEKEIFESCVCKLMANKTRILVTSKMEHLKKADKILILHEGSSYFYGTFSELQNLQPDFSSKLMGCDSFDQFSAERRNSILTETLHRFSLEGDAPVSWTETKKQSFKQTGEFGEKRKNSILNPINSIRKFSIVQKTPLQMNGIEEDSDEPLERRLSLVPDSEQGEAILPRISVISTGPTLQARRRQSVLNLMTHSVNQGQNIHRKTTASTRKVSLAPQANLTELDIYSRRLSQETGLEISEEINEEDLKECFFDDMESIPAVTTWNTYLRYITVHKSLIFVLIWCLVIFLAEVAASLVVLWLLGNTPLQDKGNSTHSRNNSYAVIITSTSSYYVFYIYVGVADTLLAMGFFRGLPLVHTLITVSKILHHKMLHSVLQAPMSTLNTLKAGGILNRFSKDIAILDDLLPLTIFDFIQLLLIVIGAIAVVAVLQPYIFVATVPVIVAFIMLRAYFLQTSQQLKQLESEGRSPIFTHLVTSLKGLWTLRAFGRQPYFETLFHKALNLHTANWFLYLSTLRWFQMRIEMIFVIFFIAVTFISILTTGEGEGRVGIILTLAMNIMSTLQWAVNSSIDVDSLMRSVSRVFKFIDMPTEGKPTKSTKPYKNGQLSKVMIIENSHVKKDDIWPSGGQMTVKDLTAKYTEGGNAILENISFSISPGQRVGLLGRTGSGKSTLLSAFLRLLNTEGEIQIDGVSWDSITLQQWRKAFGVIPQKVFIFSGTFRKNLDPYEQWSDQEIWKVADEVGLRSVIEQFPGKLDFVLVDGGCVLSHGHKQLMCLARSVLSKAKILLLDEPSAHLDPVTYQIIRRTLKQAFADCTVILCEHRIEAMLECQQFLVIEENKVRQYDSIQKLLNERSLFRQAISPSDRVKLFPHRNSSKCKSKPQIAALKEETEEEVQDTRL

Turning to `Cn1nc2nc1-c1cc(ccc1F)[S+]([O-])c1c(F)cc3[nH]ccc3c1CCS(=O)(=O)CC(C)(C)CCC[C@]2(C)c1ccccc1` (single isomer, unassigned) [Compound 223B], the “TECC (AUC, 10 μM)” value in test [1] is “C (a value between 20 and 80 is marked “C”)”. Besides, the “DSLS 3D (100 μM ΔT)” value in test [2] was “C (a value greater than 10 °C and less than or equal to 25 °C is marked “C”)”.

In the case of `COCC(Cc1cccc(C2(C)CCCC(C)(C)CS(=O)(=O)CCc3c(c(F)cc4[nH]ccc34)Oc3ccc(F)c(c3)-c3nc2nn3C)c1)C(=O)O` (single isomer, unassigned) [Compound 153A, 2-[[3-(22,28-difluoro-3,6,10,10-tetramethyl-12,12-dioxo-24-oxa-12λ6-thia-3,4,19,30-tetrazapentacyclo[23.3.1.12,5.015,23.016,20]triaconta-1(29),2(30),4,15,17,20,22,25,27-nonaen-6-yl)phenyl]methyl]-3-methoxy-propanoic Acid], in test [1], the “TECC (AUC, 10 μM)” value was “C (a value between 20 and 80 is marked “C”)”. In addition, the “DSLS 3D (100 μM ΔT)” value in test [2] was “C (a value greater than 10 °C and less than or equal to 25 °C is marked “C”)”.

For `CC(Cc1cccc(C2(C)CCOC(C)(C)CS(=O)(=O)CCc3c(c(F)cc4[nH]ccc34)Oc3ccc(F)c(c3)-c3nc2nn3C)c1)C(=O)O` (single isomer, unassigned) [Compound 28B, 3-[3-(22,28-difluoro-3,6,10,10-tetramethyl-12,12-dioxo-9,24-dioxa-12lambda6-thia-3,4,19,30-tetrazapentacyclo[23.3.1.12,5.015,23.016,20]triaconta-1(29),2(30),4,15,17,20,22,25,27-nonaen-6-yl)phenyl]-2-methyl-propanoic Acid], in test [1], the “TECC (AUC, 10 μM)” value is “B (a value between 12-20 is marked “B”)”. In test [2], the “DSLS 3D (100 μM ΔT)” value is “A (an ΔTagg value less than or equal to 5 °C is marked “A”)”.

Turning to `Cn1nc2nc1-c1cc(ccc1F)Oc1c(F)cc3[nH]ccc3c1CCS(=O)(=O)CC(C)(C)OCCC2(C)c1cccc(CCC(=O)O)c1` (single isomer, unassigned) [Compound 73B, 3-[3-(22,28-difluoro-3,6,10,10-tetramethyl-12,12-dioxo-9,24-dioxa-12lambda6-thia-3,4,19,30-tetrazapentacyclo-[23.3.1.12,5.015,23.016,20]triaconta-1(29),2(30),4,15,17,20,22,25,27-nonaen-6-yl)phenyl]-propanoic Acid], in test [1], the “TECC (AUC, 10 μM)” value is reported as “B (a value between 12-20 is marked “B”)”. In addition, in test [2], the “DSLS 3D (100 μM ΔT)” value was “A (an ΔTagg value less than or equal to 5 °C is marked “A”)”.

Take `C[C@@H](Cc1cccc(C2(C)CCCC(C)(C)CS(=O)(=O)CCc3c(c(F)cc4[nH]ccc34)Oc3ccc(F)c(c3)-c3nc2nn3C)c1)C(N)=O` (single isomer, unassigned) [Compound 158]: in test [1], the “TECC (AUC, 10 μM)” value is given as “A (a TECC value less than 12 is marked “A”)”. The “DSLS 3D (100 μM ΔT)” value in test [2] was “C (a value greater than 10 °C and less than or equal to 25 °C is marked “C”)”.

Consider `C[C@@H](Cc1cccc(C2(C)CCCC(C)(C)CS(=O)(=O)CCc3c(c(F)cc4[nH]ccc34)Oc3ccnc(c3)-c3nc2nn3C)n1)C(=O)O` (single isomer, unassigned) [Compound 266B], for which the “TECC (AUC, 10 μM)” value in test [1] is “C (a value between 20 and 80 is marked “C”)”. Also, the “DSLS 3D (100 μM ΔT)” value in test [2] is “C (a value greater than 10 °C and less than or equal to 25 °C is marked “C”)”.

Regarding `Cn1nc2nc1-c1cc(ccc1F)C(=O)c1c(F)cc3[nH]ccc3c1CCS(=O)(=O)CC(C)(C)CCCC2(C)c1cccc(CCC(=O)O)c1` (single isomer, unassigned) [Compound 31D, 3-[3-[22,28-difluoro-3,6,10,10-tetramethyl-12,12,24-trioxo-12lambda6-thia-3,4,19,30-tetrazapentacyclo[23.3.1.12,5.015,23.016,20]triaconta-1(29),2(30),4,15,17,20,22,25,27-nonaen-6-yl]phenyl]propanoic acid], the “TECC (AUC, 10 μM)” value in test [1] was “C (a value between 20 and 80 is marked “C”)”. Besides, the “DSLS 3D (100 μM ΔT)” value in test [2] is “A (an ΔTagg value less than or equal to 5 °C is marked “A”)”.

Consider `CC(Cc1cccc(C2(CN)CCCC(C)(C)CS(=O)(=O)CCc3c(c(F)cc4[nH]ccc34)Oc3ccc(F)c(c3)-c3nc2nn3C)c1)C(=O)O` (single isomer, unassigned) [Compound 136A, 3-[3-[6-(aminomethyl)-22,28-difluoro-3,10,10-trimethyl-12,12-dioxo-24-oxa-12λ6-thia-3,4,19,30-tetrazapentacyclo-[23.3.1.12,5.015,23.016,20]triaconta-1(29),2(30),4,15,17,20,22,25,27-nonaen-6-yl]phenyl]-2-methyl-propanoic Acid], for which, in test [1], the “TECC (AUC, 10 μM)” value is on record as “A (a TECC value less than 12 is marked “A”)”. For the same compound, the “DSLS 3D (100 μM ΔT)” value in test [2] is “A (an ΔTagg value less than or equal to 5 °C is marked “A”)”.

Consider `CC1(C)CCCC(c2cccc(CCC(=O)O)c2)n2cc(Cl)c(n2)-c2cc(ccc2F)Oc2c(F)cc3[nH]ccc3c2CCS(=O)(=O)C1` (centres unmarked) [Compound 70, 3-[3-(3-Chloro-22,28-difluoro-10,10-dimethyl-12,12-dioxo-24-oxa-12λ6-thia-5,19,30-triazapentacyclo[23.3.1.12,5.015,23.016,20]triaconta-1(29),2(30),3,15,17,20,22,25,27-nonaen-6-yl)phenyl]propanoic Acid], for which the “TECC (AUC, 10 μM)” value in test [1] is given as “A (a TECC value less than 12 is marked “A”)”. Also, the “DSLS 3D (100 μM ΔT)” value in test [2] was “C (a value greater than 10 °C and less than or equal to 25 °C is marked “C”)”.

As for `Cn1nc2nc1-c1cc(ccc1F)Oc1c(F)c(F)c3[nH]ccc3c1CCS(=O)(=O)CC(C)(C)CCCC2(C#N)c1cccc(CC2(C(=O)O)CC2)c1` (single isomer, unassigned) [Compound 121B, 1-[[3-(6-cyano-21,22,28-trifluoro-3,10,10-trimethyl-12,12-dioxo-24-oxa-12λ6-thia-3,4,19,30-tetrazapentacyclo[23.3.1.12,5.015,23.016,20]triaconta-1(29),2(30),4,15,17,20,22,25,27-nonaen-6-yl)phenyl]methyl]cyclopropanecarboxylic Acid], the “TECC (AUC, 10 μM)” value in test [1] is given as “A (a TECC value less than 12 is marked “A”)”. The “DSLS 3D (100 μM ΔT)” value in test [2] was “A (an ΔTagg value less than or equal to 5 °C is marked “A”)”.

Turning to `Cc1cnn2c1-c1cc(ccc1F)Oc1c(F)cc3[nH]ccc3c1CCS(=O)(=O)CC(C)(C)CCCC2c1cccc(CCC(=O)O)c1` (single isomer, unassigned) [Compound 65B, 3-[3-(23,29-Difluoro-3,11,11-trimethyl-13,13-dioxo-25-oxa-13λ6-thia-5,6,20-triazapentacyclo[24.3.1.02,6.016,24.017,21]triaconta-1(30),2,4,16,18,21,23,26,28-nonaen-7-yl)phenyl]propanoic acid], the “TECC (AUC, 10 μM)” value in test [1] was “A (a TECC value less than 12 is marked “A”)”. Also, the “DSLS 3D (100 μM ΔT)” value in test [2] was “C (a value greater than 10 °C and less than or equal to 25 °C is marked “C”)”.

As for `C[C@H](Cc1cccc([C@@]2(C)CCCC(C)(C)CS(=O)(=O)CCc3c(c(F)c(F)c4[nH]ccc34)[S+]([O-])c3ccnc(c3)-c3nc2nn3C)c1)C(=O)O` (single isomer, unassigned) [Compound 269], in test [1], the “TECC (AUC, 10 μM)” value is “C (a value between 20 and 80 is marked “C”)”. The “DSLS 3D (100 μM ΔT)” value in test [2] was “C (a value greater than 10 °C and less than or equal to 25 °C is marked “C”)”.

For `Cn1nc2nc1-c1cc(ccc1F)Oc1c(F)cc3[nH]ccc3c1CCS(=O)(=O)CC(C)(C)CCCC2(C#N)c1cccc(CC2(C(=O)O)CC2)c1` (single isomer, unassigned) [Compound 122B, 1-[[3-(6-cyano-22,28-difluoro-3,10,10-trimethyl-12,12-dioxo-24-oxa-12λ6-thia-3,4,19,30-tetrazapentacyclo[23.3.1.12,5.015,23.016,20]triaconta-1(29),2(30),4,15,17,20,22,25,27-nonaen-6-yl)phenyl]methyl]cyclopropanecarboxylic Acid], in test [1], the “TECC (AUC, 10 μM)” value was “A (a TECC value less than 12 is marked “A”)”. The “DSLS 3D (100 μM ΔT)” value in test [2] was “A (an ΔTagg value less than or equal to 5 °C is marked “A”)”.

As for `Cn1nc2nc1-c1cc(ccc1F)Oc1c(F)cc3[nH]ccc3c1CCS(=O)(=O)CC(C)(C)CCCC2(C)c1cccc(CC(O)CO)c1` (single isomer, unassigned) [Compound 97A, 3-[3-(22,28-difluoro-3,6,10,10-tetramethyl-12,12-dioxo-24-oxa-12λ6-thia-3,4,19,30-tetrazapentacyclo[23.3.1.12,5.015,23.016,20]triaconta-1(29),2(30),4,15,17,20,22,25,27-nonaen-6-yl)phenyl]propane-1,2-diol], the “TECC (AUC, 10 μM)” value in test [1] is given as “A (a TECC value less than 12 is marked “A”)”. Besides, the “DSLS 3D (100 μM ΔT)” value in test [2] is “C (a value greater than 10 °C and less than or equal to 25 °C is marked “C”)”.

Consider `C[C@@H](Cc1cccc(C2(C)CCCC(C)(C)CS(=O)(=O)CCc3c(c(F)cc4[nH]ccc34)C(=O)c3ccc(F)c(c3)-c3nc2nn3C)c1)C(=O)O` (single isomer, unassigned) [Compound 125B], for which the “TECC (AUC, 10 μM)” value in test [1] is listed as “B (a value between 12-20 is marked “B”)”. Also, the “DSLS 3D (100 μM ΔT)” value in test [2] is “C (a value greater than 10 °C and less than or equal to 25 °C is marked “C”)”.

Regarding `Cn1nc2nc1-c1cc(ccc1F)[S+]([O-])c1c(F)cc3[nH]ccc3c1CCS(=O)(=O)CC(C)(C)CCC[C@]2(C)c1cccc(C[C@@H](O)CO)c1` (single isomer, unassigned) [Compound 235B], the “TECC (AUC, 10 μM)” value in test [1] was “C (a value between 20 and 80 is marked “C”)”. Moreover, the “DSLS 3D (100 μM ΔT)” value in test [2] was “C (a value greater than 10 °C and less than or equal to 25 °C is marked “C”)”.
